According to PMC12724303 (Journal of Virology, 2025):
Like-named read-outs stand apart in the source and are kept apart here.

Experiments:
SARS-CoV-2 Wuhan variant [1] = experiment: microbe, parasite or virus in culture; type: cell-based
[2] = tested on: SARS-CoV-2 virion-associated aminophospholipids (procoagulant activity); type: biochemical
SARS-CoV-2 Delta variant = type: cell-based
SARS-CoV-2 Wuhan variant [3] = type: cell-based
[4] = tested on: SARS-CoV-2 Wuhan variant particles (N protein and spike protein)
SARS-CoV-2 Beta variant = type: cell-based
[5] = tested on: SARS-CoV-2 Wuhan variant virions
SARS-CoV-2 Wuhan variant [6] = type: cell-based; remark: listed apart in the source
[7] = tested on: SARS-CoV-2 viral particles; type: cell-based
[8] = tested on: SARS-CoV-2 Wuhan variant in Vero E6 cells; type: cell-based
[9] = tested on: SARS-CoV-2 Wuhan variant in Vero E6/TMPRSS2 cells; type: cell-based

COC[C@H]1O[C@@H]2O[C@H]3[C@H](O)[C@@H](OC)[C@@H](O[C@H]4[C@H](O)[C@@H](OC)[C@@H](O[C@H]5[C@H](O)[C@@H](OC)[C@@H](O[C@H]6[C@H](O)[C@@H](OC)[C@@H](O[C@H]7[C@H](O)[C@@H](OC)[C@@H](O[C@H]8[C@H](O)[C@@H](OC)[C@@H](O[C@H]1[C@H](O)[C@H]2OC)O[C@@H]8COC)O[C@@H]7COC)O[C@@H]6COC)O[C@@H]5COC)O[C@@H]4COC)O[C@@H]3COC [DM-β-CyD, 2,6-di-O-methyl-β-cyclodextrin]
selectivity index (SI = CC50/IC50) (SARS-CoV-2 Wuhan variant [1]): 4.04 | IC50 (SARS-CoV-2 Wuhan variant [1]; Severe acute respiratory syndrome coronavirus 2, VeroE6/TMPRSS2, 72 h, read-out: IC50 against SARS-CoV-2 infection): 1.42 mM | effect on clotting time ([2]; 5 mM): no effect on clotting time | infection inhibitory activity (cytopathic effect) (SARS-CoV-2 Delta variant): showed infection inhibitory activity | infection inhibitory activity (cytopathic effect) (SARS-CoV-2 Wuhan variant [3]): showed infection inhibitory activity

COC[C@H]1O[C@@H]2O[C@H]3[C@H](OC(C)=O)[C@@H](OC)[C@@H](O[C@H]4[C@H](OC(C)=O)[C@@H](OC)[C@@H](O[C@H]5[C@H](OC(C)=O)[C@@H](OC)[C@@H](O[C@H]6[C@H](OC(C)=O)[C@@H](OC)[C@@H](O[C@H]7[C@H](OC(C)=O)[C@@H](OC)[C@@H](O[C@H]8[C@H](OC(C)=O)[C@@H](OC)[C@@H](O[C@H]1[C@H](OC(C)=O)[C@H]2OC)O[C@@H]8COC)O[C@@H]7COC)O[C@@H]6COC)O[C@@H]5COC)O[C@@H]4COC)O[C@@H]3COC [DMA-β-CyD]
effect on clotting time [2]: insufficient recovery of clotting time | effect on clotting time ([2]; 10 mM, 37°C): markedly prolonged clotting time | band intensities of N protein and spike protein [4]: marked reduction in the band intensities of both proteins | concentration at the highest dilution completely inhibiting the cytopathic effect (SARS-CoV-2 Beta variant): 625 µM | highest dilution completely inhibiting the cytopathic effect (SARS-CoV-2 Beta variant): 16 fold | binding of viral particles to anti-RBD antibody-coated plate (RNA quantification) [5]: concentration-dependent decrease in binding | intracellular SARS-CoV-2 gRNA level (viral entry) (SARS-CoV-2 Wuhan variant [6]): decreased in a DMA-β-CyD-concentration-dependent manner | viral entry (SARS-CoV-2 Wuhan variant [6]): inhibited the entry of these particles | reduction of infectivity by pretreatment of viral particles [7]: 2.25–2.67 | reduction in TCID50/mL compared with the control [8]: 2.22 | concentration at the highest dilution completely inhibiting the cytopathic effect (SARS-CoV-2 Delta variant): 156 µM | highest dilution completely inhibiting the cytopathic effect (SARS-CoV-2 Delta variant): 64 fold | infection inhibitory activity (cytopathic effect) (SARS-CoV-2 Delta variant): showed infection inhibitory activity | infectivity of treated virus [9]: 7.34 × 10^3 TCID50/mL | concentration at the highest dilution completely inhibiting the cytopathic effect (SARS-CoV-2 Wuhan variant [3]): 156 µM | highest dilution completely inhibiting the cytopathic effect (SARS-CoV-2 Wuhan variant [3]): 64 fold | infection inhibitory activity (cytopathic effect) (SARS-CoV-2 Wuhan variant [3]): showed infection inhibitory activity

hydroxypropyl-α-cyclodextrin [HP-α-CyD]
infection inhibitory activity (cytopathic effect) (SARS-CoV-2 Wuhan variant [3]): showed infection inhibitory activity
